Experimental data taken from patent US20190053492A1, “SUBSTITUTED PYRIDINE COMPOUNDS AS PESTICIDES” (Bayer CropScience Aktiengesellschaft, priority 2016, published 2019).
Read-outs that look alike come from different tables or passages of the source.

Columns and labels:
[1] = log P by HPLC on reversed-phase column (C 18), EEC Directive 79/831 Annex V.A8; type: physicochemical; conditions: 55° C.; for LOGP_HCOOH: log P (HCOOH); for chromatographic logP: reversed-phase HPLC column (C 18)
Protocol: Temperature: 55° C. […] Called log P (HCOOH) in the table. […] Called log P (neutral) in the table.

Ctenocephalides felis = Ctenocephalides felis oral test; type: in vivo; conditions: application rate 100 ppm in citrated cattle blood, after 2 days, adult cat fleas
Protocol: Ctenocephalides felis—Oral Test Solvent: dimethyl sulphoxide To produce a suitable active ingredient formulation, 10 mg of active ingredient are mixed with 0.5 ml of dimethyl sulphoxide. Dilution with citrated cattle blood gives the desired concentration. About 20 unfed adult cat fleas (Ctenocephalides felis) are placed into a chamber which is closed at the top and bottom with gauze. A metal cylinder whose bottom end is closed with parafilm is placed onto the chamber. The cylinder contains the blood/active ingredient formulation, which can be imbibed by the fleas through the parafilm membrane. After 2 days, the kill in % is determined. 100% means that all of the fleas have been killed; 0% means that none of the fleas have been killed.

Phaedon cochleariae = Phaedon cochleariae spray test; type: in vivo; conditions: after 7 days, Chinese cabbage leaf discs
Outline: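 Larval kill read at day 7 as percent, where 100% means every larva dead and 0% none; larvae were placed on dried Brassica pekinensis leaf discs previously sprayed with the formulation (acetone/dimethylformamide solvent, alkylaryl polyglycol ether emulsifier, water).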

Spodoptera frugiperda = Spodoptera frugiperda spray test; type: in vivo; conditions: after 7 days, maize leaf discs
Outline: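 Efficacy in % was scored at 7 days against armyworm caterpillars placed on dried, compound-sprayed Zea mays leaf discs. Compound was dissolved in acetone/dimethylformamide and diluted in water with 1000 ppm alkylaryl polyglycol ether. 100% means all caterpillars were killed.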

[2] = acidic range at pH 2.7, 0.1% aqueous formic acid and acetonitrile, HPLC on reversed-phase column (C 18)
[3] = acidic range pH 2.7, 0.1% aqueous formic acid and acetonitrile, reversed-phase column (C 18)
[4] = log P, neutral range, HPLC on reversed-phase column (C 18)

SMILES | LOGP_HCOOH [1, 2] | efficacy (kill in %) (Ctenocephalides felis) | efficacy (beetle larvae killed) (Phaedon cochleariae; application rate 100 g/ha) | efficacy (beetle larvae killed) (Phaedon cochleariae; application rate 500 g/ha) | efficacy (caterpillars killed) (Spodoptera frugiperda; application rate 100 g/ha) | efficacy (caterpillars killed) (Spodoptera frugiperda; application rate 500 g/ha) | LOGP_HCOOH [1, 3] | LOGP_NEUTRAL [1, 4] | chromatographic logP ([1]; pH 2.7, LC-MS acidic range, pH 2.7, 0.1% formic acid/acetonitrile, read-out: log P (acidic) / log P (HCOOH)) | chromatographic logP ([1]; pH 7.8, LC-MS neutral range, pH 7.8, ammonium hydrogencarbonate/acetonitrile, read-out: log P (neutral)) | pest or weed control at 100 ppm (Ctenocephalides felis; Ctenocephalides felis, po, 48 h, read-out: efficacy (kill in %)) | pest or weed control at 100 g/ha (Spodoptera frugiperda; Spodoptera frugiperda, foliar, 168 h, application rate 100 g/ha, read-out: efficacy (caterpillars killed)) | pest or weed control at 500 g/ha (Spodoptera frugiperda; Spodoptera frugiperda, foliar, 168 h, application rate 500 g/ha, read-out: efficacy (caterpillars killed)) | LOGP_NEUTRAL ([1]; log P (neutral), HPLC reversed-phase column (C 18))
C#CC(C)NC(=O)c1cc(-c2ccc(OC(F)(F)F)cc2)cc(NC(=O)C2CC2)n1 (stereo not shown) [Example I-130] | 3.84 | 100% | 100% | 100% | 83% | 100% | – | – | – | – | – | – | – | –
N#CC1(NC(=O)c2cc(-c3ccc(OC(F)(F)F)cc3)cc(NC(=O)C3CC3)n2)CC1 [Example I-076] | – | 100% | 100% | 100% | 100% | 100% | 3.39 | 3.29 | – | – | – | – | – | –
O=C(NCc1ccc([N+](=O)[O-])cc1F)c1cc(-c2ccc(OC(F)(F)F)cc2)cc(NC(=O)C2CC2)n1 [Example I-102] | – | 100% | 100% | 100% | 83% | 100% | 4.29 | 4.16 | – | – | – | – | – | –
COC(=O)N(Cc1ccc(C#N)cc1)C(=O)c1cc(-c2ccc(OC(F)(F)F)cc2)cc(N(C(=O)OC)C(=O)C2CC2)n1 [Example I-232, Methyl (4-cyanobenzyl)({6-[(cyclopropylcarbonyl)(methoxycarbonyl)amino]-4-[4-(trifluoromethoxy)phenyl]pyridin-2-yl}carbonyl)carbamate] | 4.30 | – | – | – | – | – | – | 4.31 | 4.3 | 4.31 | 100% | 100% | 100% | –
O=C(NCc1ccc(F)c(C(F)(F)F)c1)c1cc(-c2ccc(OC(F)(F)F)cc2)cc(NC(=O)C2CC2)n1 [Example I-226] | 4.64 | 100% | – | 100% | 83% | 100% | – | – | – | – | – | – | – | –
O=C(NCC1CCCCC1)c1cc(-c2ccc(OC(F)(F)F)cc2)cc(NC(=O)C2CC2)n1 [Example I-167] | 5.11 | 90% | – | – | – | – | – | 4.89 | – | – | – | – | – | –
NC(=S)C1(NC(=O)c2cc(-c3ccc(OC(F)(F)F)cc3)cc(NC(=O)C3CC3)n2)CC1 [Example I-189] | 3.25 | 100% | 100% | 100% | 100% | 100% | – | 3.14 | – | – | – | – | – | –
O=C(NCc1ccc(C(F)(F)F)cc1F)c1cc(-c2ccc(OC(F)(F)F)cc2)cc(NC(=O)C2CC2)n1 [Example I-065] | – | 95% | – | 83% | 100% | 100% | 4.80 | 4.74 | – | – | – | – | – | –
N#CC1(NC(=O)c2cc(-c3ccc(C(F)(F)F)cc3)cc(NC(=O)C3CC3)n2)CC1 [Example I-041] | – | 95% | 100% | 100% | 100% | 100% | 3.28 | 3.18 | – | – | – | – | – | –
N#Cc1ccc(CNC(=O)c2cc(-c3ccc(C(F)(C(F)(F)F)C(F)(F)F)cc3)cc(NC(=O)C3CC3)n2)cc1 [Example I-150] | 4.51 | 95% | – | – | 100% | 100% | – | 4.41 | – | – | – | – | – | –
N#Cc1ccc(CNC(=O)c2cc(-c3ccc([S+]([O-])C(F)F)cc3)cc(NC(=O)C3CC3)n2)cc1 (stereo not shown) [Example I-179] | 2.53 | 100% | 83% | 100% | – | 83% | – | 2.47 | – | – | – | – | – | –
CCONC(=O)c1cc(-c2ccc(OC(F)(F)F)cc2)cc(NC(=O)C2CC2)n1 [Example I-235] | – | 95% | – | 100% | – | – | 3.21 | – | – | – | – | – | – | 3.14
O=C(NC1CC1)c1cc(-c2ccc(I)cc2)cc(NC(=O)C2CC2)n1 [Example I-035] | – | – | – | 100% | – | 100% | 3.48 | 3.39 | – | – | – | – | – | –
CC(NC(=O)c1cc(-c2ccc(OC(F)(F)F)cc2)cc(NC(=O)C2CC2)n1)c1ccc(C#N)cc1 (racemic) [Example I-158] | 4.17 | – | 83% | 100% | 100% | 100% | – | 4.02 | – | – | – | – | – | –
CC(C)NC(=O)c1cc(-c2ccc(C(F)(F)F)cc2)cc(NC(=O)C2CC2)n1 [Example I-018] | – | – | – | 100% | 83% | 100% | 2.65 | 3.68 | – | – | – | – | – | –
N#Cc1cc(F)c(CNC(=O)c2cc(-c3ccc(C(F)(F)C(F)(F)F)c(F)c3)cc(NC(=O)C3CC3)n2)c(F)c1 [Example I-248] | – | – | 100% | 100% | 100% | 100% | 4.55 | – | – | – | – | – | – | –
N#Cc1ccc(CNC(=O)c2cc(-c3ccc(OC(F)(F)F)cc3)cc(NC(=O)C3(Cl)CC3)n2)cc1 [Example I-205] | – | – | – | 100% | 100% | 100% | – | 4.62 | – | – | – | – | – | –
O=C(Cc1ccc(C(F)(F)F)cc1)Nc1cc(-c2ccc(C(F)(F)F)cc2)cc(C(=O)NC2CC2)n1 [Example I-088] | – | 90% | – | – | 100% | 83% | 4.37 | 5.54 | – | – | – | – | – | –
O=C(NCC1CC1)c1cc(-c2ccc(C(F)(F)F)cc2)cc(NC(=O)C2CC2)n1 [Example I-012] | – | – | 100% | 100% | – | 100% | 3.78 | 3.66 | – | – | – | – | – | –
NC(=S)c1ccc(CNC(=O)c2cc(-c3ccc(OC(F)(F)F)cc3)cc(NC(=O)C3CC3)n2)cc1 [Example I-214] | 3.45 | – | 83% | – | 100% | 100% | – | 3.35 | – | – | – | – | – | –
N#Cc1ccc(CNC(=O)c2cc(-c3cc(F)c(C(F)(F)C(F)(F)F)c(F)c3F)cc(NC(=O)C3CC3)n2)cc1 [Example I-274] | – | – | – | 100% | – | 100% | 4.28 | – | – | – | – | – | – | –
